This passage reports IC50 results from patent publication US9096531B2, “Fused imidazole derivative” (TOA EIYO LTD., priority 2010, dated 2015).

For one assay, the target named is T1, human T-type calcium channels (human Cav3.2) (Homo sapiens, UniProt O95180).
T1 construct: expressed in transfected cells
T1 sequence (O95180 whole entry): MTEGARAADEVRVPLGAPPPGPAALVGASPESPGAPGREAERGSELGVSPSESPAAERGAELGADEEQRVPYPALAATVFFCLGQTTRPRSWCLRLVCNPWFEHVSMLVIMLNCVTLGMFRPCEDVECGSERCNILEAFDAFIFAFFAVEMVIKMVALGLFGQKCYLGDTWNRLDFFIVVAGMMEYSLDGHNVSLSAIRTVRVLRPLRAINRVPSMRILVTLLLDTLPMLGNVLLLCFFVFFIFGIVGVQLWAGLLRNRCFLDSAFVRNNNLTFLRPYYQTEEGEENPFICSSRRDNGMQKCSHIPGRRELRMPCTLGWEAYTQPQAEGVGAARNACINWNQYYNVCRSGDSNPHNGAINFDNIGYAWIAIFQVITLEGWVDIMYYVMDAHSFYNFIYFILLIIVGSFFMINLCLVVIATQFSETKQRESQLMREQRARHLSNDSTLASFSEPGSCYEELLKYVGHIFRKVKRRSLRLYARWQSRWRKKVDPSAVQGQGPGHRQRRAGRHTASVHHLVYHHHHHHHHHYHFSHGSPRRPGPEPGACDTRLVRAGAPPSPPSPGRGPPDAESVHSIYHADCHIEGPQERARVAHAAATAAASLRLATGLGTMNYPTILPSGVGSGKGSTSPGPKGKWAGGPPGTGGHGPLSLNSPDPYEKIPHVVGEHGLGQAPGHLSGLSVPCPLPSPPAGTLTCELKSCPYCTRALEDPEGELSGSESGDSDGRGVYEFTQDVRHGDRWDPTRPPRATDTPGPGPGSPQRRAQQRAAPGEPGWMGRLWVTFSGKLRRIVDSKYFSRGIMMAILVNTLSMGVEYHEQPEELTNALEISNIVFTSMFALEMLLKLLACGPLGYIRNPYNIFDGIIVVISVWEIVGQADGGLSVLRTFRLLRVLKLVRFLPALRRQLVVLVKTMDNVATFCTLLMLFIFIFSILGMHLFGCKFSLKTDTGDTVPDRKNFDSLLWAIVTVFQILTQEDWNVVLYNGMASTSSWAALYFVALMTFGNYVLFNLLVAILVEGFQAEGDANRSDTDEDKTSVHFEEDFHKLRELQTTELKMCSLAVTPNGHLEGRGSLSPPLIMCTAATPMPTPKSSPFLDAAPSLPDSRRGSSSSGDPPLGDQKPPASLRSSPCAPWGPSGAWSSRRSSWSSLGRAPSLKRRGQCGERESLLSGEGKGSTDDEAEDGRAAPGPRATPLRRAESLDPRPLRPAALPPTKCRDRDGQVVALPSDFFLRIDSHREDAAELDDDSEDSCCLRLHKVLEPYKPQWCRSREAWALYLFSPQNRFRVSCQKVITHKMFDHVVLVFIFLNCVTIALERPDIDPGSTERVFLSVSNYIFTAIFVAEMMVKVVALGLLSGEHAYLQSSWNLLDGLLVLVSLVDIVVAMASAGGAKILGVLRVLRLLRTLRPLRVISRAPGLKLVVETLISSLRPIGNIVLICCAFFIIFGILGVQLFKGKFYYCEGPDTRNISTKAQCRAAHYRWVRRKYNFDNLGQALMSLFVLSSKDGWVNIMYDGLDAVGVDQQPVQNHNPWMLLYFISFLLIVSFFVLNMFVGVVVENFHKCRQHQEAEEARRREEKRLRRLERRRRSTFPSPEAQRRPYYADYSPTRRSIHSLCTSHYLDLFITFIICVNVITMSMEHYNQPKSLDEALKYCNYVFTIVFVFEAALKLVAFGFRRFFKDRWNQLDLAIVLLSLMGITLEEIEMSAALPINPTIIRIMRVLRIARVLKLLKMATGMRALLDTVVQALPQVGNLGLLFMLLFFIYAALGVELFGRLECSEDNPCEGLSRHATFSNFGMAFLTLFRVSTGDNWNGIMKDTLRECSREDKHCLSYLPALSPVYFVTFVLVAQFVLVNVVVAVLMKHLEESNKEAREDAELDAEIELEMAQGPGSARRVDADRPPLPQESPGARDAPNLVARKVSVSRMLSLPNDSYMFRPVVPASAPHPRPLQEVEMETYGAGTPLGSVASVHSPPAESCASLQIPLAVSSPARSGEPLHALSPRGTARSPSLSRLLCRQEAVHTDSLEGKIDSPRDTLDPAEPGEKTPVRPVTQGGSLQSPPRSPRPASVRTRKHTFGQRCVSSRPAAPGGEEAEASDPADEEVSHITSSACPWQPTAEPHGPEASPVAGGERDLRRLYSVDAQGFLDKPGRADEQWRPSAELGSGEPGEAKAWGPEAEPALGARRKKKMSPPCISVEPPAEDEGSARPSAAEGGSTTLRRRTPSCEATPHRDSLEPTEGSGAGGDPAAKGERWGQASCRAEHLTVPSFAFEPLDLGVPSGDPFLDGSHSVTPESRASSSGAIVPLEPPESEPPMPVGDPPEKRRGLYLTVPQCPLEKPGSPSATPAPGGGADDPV
In words: Electrophysiological test (patch clamp method) in HEK293 cells stably expressing human Cav3.2. It is filed as cell-based. To be noted: auto-patch clamp, peak calcium current, holding potential -80 mV, pulse of -20 mV. As to the method:
For each test, human embryonic kidney cells (HEK293 cells) in which human T-type calcium channels (human Cav3.2) were stably expressed were used.
HEK293 cells in which human Cav3.2 were stably expressed were cultured at 37° C. in Alpha-MEM containing 10% (v/v) fetal bovine serum (FBS), penicillin (100 U/mL), streptomycin (100 μg/mL) and G418 (250 μg/mL). The cells were dissociated by Accutase (Sigma-Aldrich Co.) treatment and were used as a suspension in the culture medium. The calcium current was measured with an auto-patch clamp system (Port-a-Patch, Nanion Technologies, GmbH), by using an internal solution (50 mmol/L CsCl, 10 mmol/L NaCl, 60 mmol/L CsF, 2 mmol/L MgCl2, 20 mmol/L EGTA, 10 mmol/L HEPES/CsOH, pH 7.2) and an external solution (80 mmol/L NaCl, 1 mmol/L TEAC1, 3 mmol/L KCl, 35 mmol/L CaCl2, 10 mmol/L MgCl2, 10 mmol/L HEPES, pH 7.2).
The inhibitory effect of the compound against the peak current was measured by fixing the holding potential at −80 mV, and applying a pulse of −20 mV to the cells at an interval of 5 seconds. The compound evaluation was carried out by sequentially replacing the external solution containing the compound (1 μmol/L, 3 μmol/L, 10 μmol/L, and 50 μmol/L), and measuring the current. The inhibition ratio was calculated from the peak current value, and the IC50 value was determined by converting the inhibition ratio according to a probit analysis, and then calculating the IC50 value from an approximation formula deduced by linear regression.
The IC50 is the midpoint of a concentration-inhibition curve. For `OC(c1ccc(OC(F)(F)F)cc1)c1nc2cc(Cl)cnc2[nH]1` (stereo not shown) [Example 44, (6-Chloro-3H-imidazo[4,5-b]pyridin-2-yl)-(4-trifluoromethoxyphenyl)methanol], the IC50 worked out at 1.01 µM.

Take `CCOC(c1ccc(OC(F)(F)F)cc1)c1nc2cc(Cl)cnc2[nH]1` (stereo not shown) [Example 53]: the IC50 turned out to be 1.77 µM.

In the case of `CCOC(c1ccc(OC(F)(F)F)cc1)c1nc2cc(F)ccc2[nH]1` (stereo not shown) [Example 70, 2-[Ethoxy(4-trifluoromethoxyphenyl)methyl]-5-fluoro-1H-benzimidazole], the IC50 turned out to be 1.76 µM.

As to `OC(c1ccc(OC(F)(F)F)cc1)c1nc2cc(F)ccc2[nH]1` (stereo not shown) [Example 1, (5-Fluoro-1H-benzimidazol-2-yl)-(4-trifluoromethoxyphenyl)methanol], the IC50 is 1.92 µM.

A further assay has as its target T1, human T-type calcium channels (human Cav3.2). In words: Intracellular calcium (Fura2 fluorescence) assay in HEK293 cells stably expressing human Cav3.2. The class given is cell-based. To be noted: Fura2 fluorescence ratio after calcium chloride addition, 15 min with compound. As for the experimental part:
Representative compounds of the present invention were tested on the selective antagonistic effect against T-type calcium channels (Cav3.2) by way of the following Test Example. For each test, human embryonic kidney cells (HEK293 cells) in which human T-type calcium channels (human Cav3.2) were stably expressed were used.
HEK293 cells in which human Cav3.2 were stably expressed were cultured at 37° C. in Alpha-MEM containing 10% (v/v) fetal bovine serum (FBS), penicillin (100 U/mL), streptomycin (100 μg/mL) and G418 (250 μg/mL). The cells were suspended in the culture medium and seeded onto a 96-well plate, and then the cells were cultured for 24 hours. The culture medium was removed, and the culture medium was replaced with S-MEM containing 5% (v/v) FBS, calcium chloride (0.5 mmol/L), L-glutamine (2 mmol/L), L-alanine (8.9 ng/mL), L-asparagine (13.2 ng/mL), L-aspartic acid (1.33 ng/mL), L-glutamic acid (1.47 ng/mL), glycine (7.5 ng/mL), L-proline (11.5 ng/mL), L-serine (10.5 ng/mL), penicillin (100 U/mL), and streptomycin (100 μg/mL). The cells were cultured for another 24 hours. The culture medium was removed again, and the cells were washed with an assay buffer (140 mmol/L sodium chloride, 5 mmol/L potassium chloride, 0.5 mmol/L magnesium chloride, 0.5 mmol/L calcium chloride, 10 mmol/L glucose, 0.4 mmol/L magnesium sulfate, 10 mmol/L HEPES, and 250 μmol/L sulfinpyrazone, pH 7.4) that had been kept warm at 37° C. Subsequently, the assay buffer in which Fura2-AM, which is a fluorescent Ca^2+ indicator, was dissolved at 5 μM was added to the cells, and the cells were cultured at 37° C. for 30 minutes. The assay buffer containing dissolved Fura2 was removed, and the cells were washed with the assay buffer. Subsequently, the assay buffer to which a test compound had been added was added to the cells, and the cells were cultured for 15 minutes. The plate was placed in a fluorescence analyzer (Flex Station II, Molecular Devices, LLC), the baseline was measured, and then the change in the intracellular calcium concentration that was caused when an assay buffer containing 100 mmol/L calcium chloride was added, was measured (excited at 340 nm and 380 nm, and detected at 510 nm). Thus, the fluorescence intensity ratios obtainable at the respective wavelengths were calculated.
Meanwhile, the test compound solution was prepared by dissolving each of the test compounds in DMSO to a concentration of 10 mmol/L, and then adding the assay buffer to a predetermined concentration. As a control solution, DMSO was used instead of the test compounds.
The inhibitory effect value (%) of each test compound was calculated by subtracting the average value of the fluorescence intensity ratio for the period of 0 to 20 seconds after the initiation of measurement, from the average value of the fluorescence intensity ratio for the period of 45 to 50 seconds after the initiation of measurement, and comparing the activity in the presence of the test compound with the value in the control solution as the maximum activity of Cav3.2.
Curve fitting formula (Model 08: Sigmoidal Inhibition Curve, Vmax+Y2 to Y2) Y=Vmax×(1−(X^n/(K^n+X^n)))+Y2
% inhibition value=(RFU (compound)—RFU(LC))/(RFU (HC)−(RFU(LC))
HC: Average of RFU value for the period of 25 to 30 seconds after the addition of Ca^2+-containing assay buffer after the control solution treatment (for the period of 45 to 50 seconds after the initiation of measurement)
LC: Average of RFU value for the period of 25 to 30 seconds after the addition of non-Ca^2+-containing assay buffer after the control solution treatment (for the period of 45 to 50 seconds after the initiation of measurement)
The RFU in the formula represents the relative fluorescence unit.
A general note: Calcium flux is commonly read through the fluorescence of an indicator in the cells.
For the compound `OC(c1ccc2c(c1)OC(F)(F)O2)c1nc2cc(Cl)cnc2[nH]1` (stereo not shown) [Example 50], the IC50 is 0.05 µM.

Consider `OC(c1ccc(OC(F)(F)F)c(Br)c1)c1nc2cc(F)ccc2[nH]1` (stereo not shown) [Example 13], for which the half-inhibitory concentration (IC50) is 0.27 µM.

Turning to `OC(c1ccc(OC(F)(F)F)cc1)c1nc2cc(Br)ccc2[nH]1` (stereo not shown) [Example 112], the IC50 was 0.37 µM.

Consider `CCOc1ccc2[nH]c(C(OCC)c3ccc(SC(F)(F)F)cc3)nc2c1` (stereo not shown) [Example 91], for which the IC50 was 0.96 µM.

For `CCOC(c1ccc(OC(F)(F)F)c(F)c1)c1nc2cc(F)ccc2[nH]1` (stereo not shown) [Example 29], the IC50 is 0.37 µM.

As to `COC(c1ccc(OC(F)(F)F)cc1)c1nc2cc(F)ccc2[nH]1` (stereo not shown) [Example 89], the IC50 turned out to be 0.78 µM.

As to `CCCSc1ccc2[nH]c(C(O)c3ccc(OC(F)(F)F)cc3)nc2c1` (stereo not shown) [Example 47], the IC50 came to 0.59 µM.

In the case of `CCOC(c1ccc(OC(F)(F)F)cc1)c1nc2cc(C#N)ccc2[nH]1` (stereo not shown) [Example 115, 2-[Ethoxy(4-trifluoromethoxyphenyl)methyl]-1H-benzimidazole-5-carbonitrile], the IC50 is 0.99 µM.

As to `OC(c1ccc(OC(F)(F)C(F)F)cc1)c1nc2cc(F)ccc2[nH]1` (stereo not shown) [Example 6], the IC50 stood at 0.59 µM.

On to `OC(c1ccc(C(F)(F)F)c(F)c1)c1nc2cc(F)ccc2[nH]1` (stereo not shown) [Example 5], for which the IC50 came to 0.21 µM.

Turning to `OC(c1ccc(OC(F)(F)F)c(F)c1)c1nc2cc(F)ccc2[nH]1` (stereo not shown) [Example 12], the IC50 is 0.1 µM.

Turning to `OC(c1ccc(OC(F)(F)F)cc1)c1nc2cccnc2[nH]1` (stereo not shown) [Example 49], the IC50 stood at 0.16 µM.

Turning to `CCOC(c1ccc(C(F)(F)F)cc1)c1nc2cc(F)ccc2[nH]1` (stereo not shown) [Example 27], the half-maximal inhibitory concentration (IC50) is 0.92 µM.

Turning to `CCOC(c1ccc(OCc2ccc(F)cc2)cc1)c1nc2cc(Cl)cnc2[nH]1` (stereo not shown) [Example 58], the IC50 was determined as 0.7 µM.

On to `OC(c1ccc(OC(F)(F)F)cc1)c1nc2cc(Cl)cnc2[nH]1` (stereo not shown) [Example 44, (6-Chloro-3H-imidazo[4,5-b]pyridin-2-yl)-(4-trifluoromethoxyphenyl)methanol], for which the IC50 is 0.01 µM.

Regarding `N#Cc1ccc2[nH]c(C(O)c3ccc(OC(F)(F)F)cc3)nc2c1` (stereo not shown) [Example 114, 2-[Hydroxy(4-trifluoromethoxyphenyl)methyl]-1H-benzimidazole-5-carbonitrile], the IC50 came out at 0.19 µM.

Turning to `OC(c1ccc(SC(F)(F)F)cc1)c1nc2cc(F)ccc2[nH]1` (stereo not shown) [Example 3], the IC50 is 0.47 µM.

In the case of `CCOC(c1ccc(OC(F)(F)F)cc1)c1nc2cc(Cl)cnc2[nH]1` (stereo not shown) [Example 53], the IC50 is 0.17 µM.

In the case of `OC(c1ccc2c(c1)OC(F)(F)O2)c1nc2cc(F)ccc2[nH]1` (stereo not shown) [Example 16], the IC50 came to 0.49 µM.

Turning to `OC(c1ccc(C(F)(F)F)cc1)c1nc2cc(F)ccc2[nH]1` (stereo not shown) [Example 4], the IC50 was 0.65 µM.

Take `CCOC(c1ccc(OC(F)(F)F)cc1)c1nc2cc(F)ccc2[nH]1` (stereo not shown) [Example 70, 2-[Ethoxy(4-trifluoromethoxyphenyl)methyl]-5-fluoro-1H-benzimidazole]: the half-inhibitory concentration (IC50) was found to be 0.58 µM.

Regarding `CCOC(c1ccc2c(c1)OC(F)(F)O2)c1nc2cc(F)ccc2[nH]1` (stereo not shown) [Example 32], the IC50 amounted to 0.63 µM.

In the case of `OC(c1ccc(OC(F)(F)F)cc1)c1nc2cc(F)ccc2[nH]1` (stereo not shown) [Example 1, (5-Fluoro-1H-benzimidazol-2-yl)-(4-trifluoromethoxyphenyl)methanol], the IC50 amounted to 0.32 µM.

Consider `OC(c1ccc(OC(F)(F)F)cc1)c1nc2ccc(Cl)nc2[nH]1` (stereo not shown) [Example 46], for which the half-inhibitory concentration (IC50) was determined as 0.22 µM.
